Experimental data as given in US20120277161A1, “INHIBITION OF MULTIPLE CELL ACTIVATION PATHWAYS” (INTER-K PTY LIMITED, priority 2009, published 2012).

What was measured:
PKB beta = PKB beta (Homo sapiens, UniProt P31751); experiment: PKB kinase activity assay; type: biochemical; conditions: dendrimer conc. 1 μM; read-out: Percentage (%) kinase inhibition PKB beta
Method: (§1) In a final reaction volume of 25 μL, PKB(h) (5-10 mU) is incubated with 8 mM MOPS pH 7.0, 0.2 mM EDTA, 30 μM GRPRTSSFAEGKK (SEQ ID No. 26), 10 mM MgAcetate and [γ-33P-ATP] (specific activity approx. 500 cpm/pmol, concentration as required). The reaction is initiated by the addition of the MgATP mix. After incubation for 40 minutes at room temperature, the reaction is stopped by the addition of 5 μL of a 3% phosphoric acid solution. 10 μL of the reaction mixture is then spotted onto a P30 filtermat and washed three times for 5 minutes in 75 mM phosphoric acid and once in methanol prior to drying and scintillation counting.

PKB gamma = PKB gamma (Homo sapiens, UniProt Q9Y243); experiment: PKB kinase activity assay; type: biochemical; conditions: dendrimer conc. 1 μM; read-out: Percentage (%) kinase inhibition PKB gamma
Chain of PKB gamma (Q9Y243 whole entry): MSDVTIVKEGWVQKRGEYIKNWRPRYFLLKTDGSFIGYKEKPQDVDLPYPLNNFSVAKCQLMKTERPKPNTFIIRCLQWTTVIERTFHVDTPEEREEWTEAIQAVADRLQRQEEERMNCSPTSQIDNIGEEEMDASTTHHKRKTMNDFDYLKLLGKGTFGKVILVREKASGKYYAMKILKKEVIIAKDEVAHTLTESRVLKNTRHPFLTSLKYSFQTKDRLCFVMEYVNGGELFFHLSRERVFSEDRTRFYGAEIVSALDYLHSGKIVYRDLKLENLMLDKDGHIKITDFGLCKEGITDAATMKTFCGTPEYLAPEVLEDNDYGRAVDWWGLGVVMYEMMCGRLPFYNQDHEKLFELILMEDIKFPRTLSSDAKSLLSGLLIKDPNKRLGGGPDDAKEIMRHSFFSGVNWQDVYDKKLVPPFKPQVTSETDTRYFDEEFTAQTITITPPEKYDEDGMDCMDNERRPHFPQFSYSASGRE
Method: as §1

PI3K P110δ = PI3K P110δ (Homo sapiens, UniProt O00329); experiment: PI3K HTRF activity assay; type: biochemical; conditions: dendrimer conc. 1 μM; read-out: Percentage (%) kinase inhibition PI3K P110δ
Chain of PI3K P110δ (O00329 whole entry, the tested form may be a part): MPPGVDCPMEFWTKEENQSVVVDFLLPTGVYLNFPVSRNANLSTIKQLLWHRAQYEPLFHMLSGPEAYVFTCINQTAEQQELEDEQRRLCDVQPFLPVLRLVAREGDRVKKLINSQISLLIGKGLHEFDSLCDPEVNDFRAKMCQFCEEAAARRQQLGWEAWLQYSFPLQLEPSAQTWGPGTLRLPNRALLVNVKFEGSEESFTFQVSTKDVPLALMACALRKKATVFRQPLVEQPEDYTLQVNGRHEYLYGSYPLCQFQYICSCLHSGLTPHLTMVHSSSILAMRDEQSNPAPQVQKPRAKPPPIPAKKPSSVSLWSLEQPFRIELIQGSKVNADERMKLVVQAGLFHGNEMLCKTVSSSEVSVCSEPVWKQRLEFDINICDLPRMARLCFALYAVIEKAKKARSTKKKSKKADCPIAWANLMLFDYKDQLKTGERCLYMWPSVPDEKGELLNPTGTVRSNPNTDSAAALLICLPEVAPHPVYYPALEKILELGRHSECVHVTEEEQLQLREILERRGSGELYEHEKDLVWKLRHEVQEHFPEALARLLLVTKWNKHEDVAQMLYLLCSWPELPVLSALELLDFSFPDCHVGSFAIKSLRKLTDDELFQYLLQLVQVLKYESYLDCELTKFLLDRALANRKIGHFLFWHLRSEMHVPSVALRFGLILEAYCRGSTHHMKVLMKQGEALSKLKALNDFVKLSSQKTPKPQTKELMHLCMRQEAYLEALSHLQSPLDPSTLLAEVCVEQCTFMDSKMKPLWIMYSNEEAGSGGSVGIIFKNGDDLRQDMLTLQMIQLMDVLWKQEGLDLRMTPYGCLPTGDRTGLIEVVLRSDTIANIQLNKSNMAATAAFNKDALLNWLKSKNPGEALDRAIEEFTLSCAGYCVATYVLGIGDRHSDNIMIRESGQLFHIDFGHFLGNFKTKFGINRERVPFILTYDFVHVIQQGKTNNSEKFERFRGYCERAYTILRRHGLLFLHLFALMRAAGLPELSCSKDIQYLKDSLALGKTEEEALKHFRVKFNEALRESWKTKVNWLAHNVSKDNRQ
Chain of PI3K P110δ (P27986 whole entry partner, the tested form may be a part): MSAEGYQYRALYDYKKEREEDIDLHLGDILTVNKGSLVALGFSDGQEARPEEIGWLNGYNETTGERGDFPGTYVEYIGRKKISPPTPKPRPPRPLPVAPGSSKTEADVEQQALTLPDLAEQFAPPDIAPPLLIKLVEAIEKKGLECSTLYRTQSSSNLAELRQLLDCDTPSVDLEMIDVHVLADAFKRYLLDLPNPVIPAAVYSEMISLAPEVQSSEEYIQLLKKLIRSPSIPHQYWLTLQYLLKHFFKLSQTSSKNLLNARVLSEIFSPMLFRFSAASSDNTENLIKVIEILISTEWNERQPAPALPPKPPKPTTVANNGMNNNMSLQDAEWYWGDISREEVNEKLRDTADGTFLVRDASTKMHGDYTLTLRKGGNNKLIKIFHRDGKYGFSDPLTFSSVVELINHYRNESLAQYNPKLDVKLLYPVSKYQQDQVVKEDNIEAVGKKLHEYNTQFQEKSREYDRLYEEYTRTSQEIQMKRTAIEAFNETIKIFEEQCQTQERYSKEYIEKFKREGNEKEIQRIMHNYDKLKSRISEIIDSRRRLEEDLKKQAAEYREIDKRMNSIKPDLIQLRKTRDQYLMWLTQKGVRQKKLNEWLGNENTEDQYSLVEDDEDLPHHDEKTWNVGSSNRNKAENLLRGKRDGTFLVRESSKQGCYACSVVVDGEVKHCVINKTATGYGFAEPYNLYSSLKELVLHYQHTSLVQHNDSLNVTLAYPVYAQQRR
Method: (§2) In a final reaction volume of 20 μL, the test PI3K is incubated in assay buffer containing 10 μM phosphatidylinositol-4,5-bisphosphate and MgATP. The reaction is initiated by the addition of the MgATP mix. After incubation for 30 minutes at room temperature, the reaction is stopped by the addition of 5 μL of stop solution containing EDTA and biotinylated phosphatidylinositol-3,4,5-trisphosphate. Finally, 5 μL of detection buffer is added (containing europium-labelled anti-GST monoclonal antibody, GST-tagged GRP1 PH domain and streptavidin-allophycocyanin). The test plate is then read in time-resolved fluorescence mode and the homogenous time-resolved fluorescence (HTRF) signal is determined according to the formula HTRF=10000×(Em665 nm/Em620 nm).

PI3K beta = PI3K beta (Homo sapiens, UniProt P42338); experiment: PI3K HTRF activity assay; type: biochemical; conditions: dendrimer conc. 1 μM; read-out: Percentage (%) kinase inhibition PI3K P110β
Method: as §2

c-RAF (h) = c-RAF (h) (Homo sapiens, UniProt P04049); experiment: c-RAF kinase activity assay; type: biochemical; conditions: dendrimer conc. 1 μM; read-out: Percentage (%) kinase inhibition c-RAF
Method: as §1, with “c-RAF (h)” for “PKB(h)”, “25” for “8”, “Tris” for “MOPS”, “7.5, 0.02” for “7.0, 0.2”, “EGTA, 0.66 mg/mL myelin basic protein,” for “EDTA, 30 μM GRPRTSSFAEGKK (SEQ ID No. 26),”, “reaction” for “reaction mixture”

PKC beta I = PKC beta I (Homo sapiens, UniProt P05771); experiment: PKC kinase activity assay; type: biochemical; conditions: dendrimer conc. 1 μM; read-out: Percentage (%) kinase inhibition PKC beta I
Method: (§3) In a final reaction volume of […] PKC kinase (h) (5-10 mU) is incubated with 20 mM HEPES pH 7.4, 0.03% Triton X-100, […], 0.1 mg/mL phosphatidylserine, 10 μg/mL diacylglycerol, 0.1 mg/mL histone H1 or 50 μM of the peptide ERMRPRKRQGSVRRRV (SEQ ID No. 20), 10 mM MgAcetate and [γ-33P-ATP] (specific activity approx. 500 cpm/pmol, concentration as required). The reaction is initiated by the addition of the MgATP mix. After incubation for 40 minutes at room temperature, the reaction is stopped by the addition of 5 μL of a 3% phosphoric acid solution. 10 μL of the reaction is then spotted onto a P30 filtermat and washed three times for 5 minutes in 75 mM phosphoric acid and once in methanol prior to drying and scintillation counting.

PKC beta II = PKC beta II (Homo sapiens, UniProt P05771); experiment: PKC kinase activity assay; type: biochemical; conditions: dendrimer conc. 1 μM; read-out: Percentage (%) kinase inhibition PKC beta II
Chain of PKC beta II (P05771 1-673 isoform P05771-2): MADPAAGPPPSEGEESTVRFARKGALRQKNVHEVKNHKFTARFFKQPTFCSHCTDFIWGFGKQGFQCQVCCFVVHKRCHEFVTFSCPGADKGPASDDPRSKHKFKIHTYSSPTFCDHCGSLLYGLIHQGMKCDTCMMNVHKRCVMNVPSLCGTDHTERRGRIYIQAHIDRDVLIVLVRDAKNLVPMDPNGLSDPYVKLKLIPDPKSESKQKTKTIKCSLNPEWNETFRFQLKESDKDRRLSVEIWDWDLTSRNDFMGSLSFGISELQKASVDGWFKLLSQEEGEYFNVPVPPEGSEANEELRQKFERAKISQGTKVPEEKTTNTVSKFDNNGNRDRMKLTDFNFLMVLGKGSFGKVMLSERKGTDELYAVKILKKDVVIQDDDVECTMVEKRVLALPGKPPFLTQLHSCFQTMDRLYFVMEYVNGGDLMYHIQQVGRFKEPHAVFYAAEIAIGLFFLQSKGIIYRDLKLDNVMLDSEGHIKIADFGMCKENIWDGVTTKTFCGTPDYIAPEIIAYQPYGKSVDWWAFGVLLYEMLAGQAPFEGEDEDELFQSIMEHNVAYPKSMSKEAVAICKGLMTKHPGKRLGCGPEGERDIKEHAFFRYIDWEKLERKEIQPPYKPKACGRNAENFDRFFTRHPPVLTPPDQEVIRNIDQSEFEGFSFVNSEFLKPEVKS
Method: as §3

PKC alpha = PKC alpha (Homo sapiens, UniProt P17252); experiment: PKC kinase activity assay; type: biochemical; conditions: dendrimer conc. 1 μM; read-out: Percentage (%) kinase inhibition PKC alpha
Method: as §3

MEK1 (h) = MEK1 (h) (Homo sapiens, UniProt Q02750); experiment: MEK1 kinase activity assay; type: biochemical; conditions: dendrimer conc. 1 μM; read-out: Percentage (%) kinase inhibition MEK1
Chain of MEK1 (h) (Q02750 whole entry): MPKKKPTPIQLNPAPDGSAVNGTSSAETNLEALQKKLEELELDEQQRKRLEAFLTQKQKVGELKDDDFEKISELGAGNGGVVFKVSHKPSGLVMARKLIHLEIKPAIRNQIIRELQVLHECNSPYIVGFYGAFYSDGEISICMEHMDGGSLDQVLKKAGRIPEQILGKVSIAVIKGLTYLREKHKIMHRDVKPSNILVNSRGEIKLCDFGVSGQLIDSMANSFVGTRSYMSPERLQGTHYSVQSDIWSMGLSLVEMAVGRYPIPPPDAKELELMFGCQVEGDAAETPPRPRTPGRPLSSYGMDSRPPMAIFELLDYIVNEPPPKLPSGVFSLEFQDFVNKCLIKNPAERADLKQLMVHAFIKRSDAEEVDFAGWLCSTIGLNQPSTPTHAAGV
Method: The reaction is initiated by the addition of the MgATP. After incubation for 40 minutes at room temperature, 5 μL of this incubation mix is used to initiate an ERK2 (m) assay.

[1] = system: HT29 human colon cancer cells; experiment: Cell proliferation (MTT) assay, HT29 cells; type: cell-based
Method: (§4) 6.1 Cell Proliferation (MTT) Assay Single cell suspensions of viable trypsinised cells were seeded into 96-well tissue culture plates at a density of 2×10^3 cells per well in a volume of 100 μl of a suitable culture media supplemented with heat inactivated foetal calf serum (FCS) (e.g., Dulbecco's Modified Eagles Medium (DMEM), with 10% v/v FCS, 1% L-glutamine, 2% (v/v) Hepes, and antibiotics). A set of triplicate wells was prepared for each concentration of the peptide dendrimer being tested. Additional sample wells containing untreated cells or media alone were set up in each treatment plate and processed in parallel as reference controls. A zero-time plate of untreated cells and media-alone wells was simultaneously prepared and an MTT assay carried out on this plate at the time of addition of the kinase inhibitor (i.e., polypeptide or dendrimer) to treatment plates. All plates were cultured for 24 hours before addition of the test dendrimer.
(§5) To prepare the MTT solution 100 mg of MTT (3-(4,5-dimethylthiazolyl-2)-2,5-diphenyltetrazolium bromide) (Cat #. M-128, Sigma, St Louis Mo.), is mixed with 20 ml of PBS at pH 7.4. The resulting solution is filter sterilized (0.2 μM syringe filter) and stored at 4° C. protected from light until use. MTT substrate is cleaved in growing cells to yield a water insoluble salt. After solubilisation of the salt crystals, a coloured product is produced the measurement of which allows quantitation of the proliferative activity of the cultured cells.
(§6) Appropriate concentrations of the kinase inhibitor were prepared by dilution of freshly prepared sterile 1 mM stock solutions into cell culture media to give a final well volume of 200 μl containing 10% v/v FCS. The zero-plate was processed by addition of MTT at this time. Cell culture was continued for a further 24 or 48 hours before addition of 20 μl of MTT in PBS (5 mg/ml, 0.2 um filter sterilised). The MTT cell proliferation assay measures cell proliferation rate and, in instances where cell viability is compromised, the assay indicates a comparative reduction in cell viability. After a 3 hour incubation in the presence of MTT (5% CO2 in air at 37° C.), plates were centrifuged at 450 g for 5 minutes, supernatant was removed by gentle suction and precipitated tetrazolium salt resuspended into 150 μl DMSO:glycine (0.1M glycine, 0.1M NaCl pH 10.5) (6:1 v/v) solution. Plates were gently vortexed to complete solubilisation of crystalline material and absorbance was read at 550 nm using a microplate reader. Sample data were processed to determine the comparative growth of treated samples relative to untreated controls.
HT29 cells were cultured for 48 hours in the presence of selected dendrimers and proliferation of the cells was assessed by MTT assay essentially as described in Example 6.1. The results were calculated as percentage proliferation of control cells (not treated with dendrimer).

[2] = system: ADDP human ovarian carcinoma cell line; experiment: Cell proliferation (MTT) assay, ADDP cells; type: cell-based
Method: as §4, §5, §6

Chain of PKB beta (P31751 whole entry): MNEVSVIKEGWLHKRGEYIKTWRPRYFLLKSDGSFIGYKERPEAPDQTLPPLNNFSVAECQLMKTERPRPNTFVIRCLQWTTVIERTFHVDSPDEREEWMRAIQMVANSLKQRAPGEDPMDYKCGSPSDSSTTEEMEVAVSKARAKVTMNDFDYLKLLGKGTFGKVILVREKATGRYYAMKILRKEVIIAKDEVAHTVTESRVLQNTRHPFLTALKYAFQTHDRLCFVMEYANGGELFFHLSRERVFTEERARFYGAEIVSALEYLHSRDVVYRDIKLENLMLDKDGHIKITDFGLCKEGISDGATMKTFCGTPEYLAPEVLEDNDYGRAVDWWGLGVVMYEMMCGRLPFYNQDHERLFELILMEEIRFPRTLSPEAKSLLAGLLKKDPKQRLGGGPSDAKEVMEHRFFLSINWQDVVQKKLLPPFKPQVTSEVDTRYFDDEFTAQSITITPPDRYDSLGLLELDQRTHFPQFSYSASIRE

## CC(C)C[C@@H](NC(=O)[C@H]1CCCN1C(=O)[C@@H](CC(N)=O)NC(=O)[C@@H](CCCNC(=N)N)NC(=O)[C@@H](C)NC(=O)[C@@H](CCCNC(=N)N)NC(=O)[C@@H](CO)NC(=O)[C@H](N)CCCNC(=N)N)C(=O)N[C@H](Cc1ccc(O)cc1)C(=O)N[C@H](CCCNC(=N)N)C(=O)NCCCC[C@H](NC(=O)[C@H](CCCCNC(=O)[C@H](CCCCNC(=O)[C@@H](CCCNC(=N)N)NC(=O)[C@@H](Cc1ccc(O)cc1)NC(=O)[C@@H](CC(C)C)NC(=O)[C@H]1CCCN1C(=O)[C@@H](CC(N)=O)NC(=O)[C@@H](CCCNC(=N)N)NC(=O)[C@@H](C)NC(=O)[C@@H](CCCNC(=N)N)NC(=O)[C@@H](CO)NC(=O)[C@H](N)CCCNC(=N)N)NC(=O)[C@@H](CCCNC(=N)N)NC(=O)[C@@H](Cc1ccc(O)cc1)NC(=O)[C@@H](CC(C)C)NC(=O)[C@H]1CCCN1C(=O)[C@@H](CC(N)=O)NC(=O)[C@@H](CCCNC(=N)N)NC(=O)[C@@H](C)NC(=O)[C@@H](CCCNC(=N)N)NC(=O)[C@@H](CO)NC(=O)[C@H](N)CCCNC(=N)N)NC(=O)[C@H](CCCCNC(=O)[C@@H](CCCNC(=N)N)NC(=O)[C@@H](Cc1ccc(O)cc1)NC(=O)[C@@H](CC(C)C)NC(=O)[C@H]1CCCN1C(=O)[C@@H](CC(N)=O)NC(=O)[C@@H](CCCNC(=N)N)NC(=O)[C@@H](C)NC(=O)[C@@H](CCCNC(=N)N)NC(=O)[C@@H](CO)NC(=O)[C@H](N)CCCNC(=N)N)NC(=O)[C@@H](CCCNC(=N)N)NC(=O)[C@@H](Cc1ccc(O)cc1)NC(=O)[C@@H](CC(C)C)NC(=O)[C@H]1CCCN1C(=O)[C@@H](CC(N)=O)NC(=O)[C@@H](CCCNC(=N)N)NC(=O)[C@@H](C)NC(=O)[C@@H](CCCNC(=N)N)NC(=O)[C@@H](CO)NC(=O)[C@H](N)CCCNC(=N)N)C(=O)NCCCC[C@H](NC(=O)[C@H](CCCCNC(=O)[C@@H](CCCNC(=N)N)NC(=O)[C@@H](Cc1ccc(O)cc1)NC(=O)[C@@H](CC(C)C)NC(=O)[C@H]1CCCN1C(=O)[C@@H](CC(N)=O)NC(=O)[C@@H](CCCNC(=N)N)NC(=O)[C@@H](C)NC(=O)[C@@H](CCCNC(=N)N)NC(=O)[C@@H](CO)NC(=O)[C@H](N)CCCNC(=N)N)NC(=O)[C@H](CCCCNC(=O)[C@H](CCCCNC(=O)[C@@H](CCCNC(=N)N)NC(=O)[C@@H](Cc1ccc(O)cc1)NC(=O)[C@@H](CC(C)C)NC(=O)[C@H]1CCCN1C(=O)[C@@H](CC(N)=O)NC(=O)[C@@H](CCCNC(=N)N)NC(=O)[C@@H](C)NC(=O)[C@@H](CCCNC(=N)N)NC(=O)[C@@H](CO)NC(=O)[C@H](N)CCCNC(=N)N)NC(=O)[C@@H](CCCNC(=N)N)NC(=O)[C@@H](Cc1ccc(O)cc1)NC(=O)[C@@H](CC(C)C)NC(=O)[C@H]1CCCN1C(=O)[C@@H](CC(N)=O)NC(=O)[C@@H](CCCNC(=N)N)NC(=O)[C@@H](C)NC(=O)[C@@H](CCCNC(=N)N)NC(=O)[C@@H](CO)NC(=O)[C@H](N)CCCNC(=N)N)NC(=O)[C@H](CCCCNC(=O)[C@@H](CCCNC(=N)N)NC(=O)[C@@H](Cc1ccc(O)cc1)NC(=O)[C@@H](CC(C)C)NC(=O)[C@H]1CCCN1C(=O)[C@@H](CC(N)=O)NC(=O)[C@@H](CCCNC(=N)N)NC(=O)[C@@H](C)NC(=O)[C@@H](CCCNC(=N)N)NC(=O)[C@@H](CO)NC(=O)[C@H](N)CCCNC(=N)N)NC(=O)[C@@H](CCCNC(=N)N)NC(=O)[C@@H](Cc1ccc(O)cc1)NC(=O)[C@@H](CC(C)C)NC(=O)[C@H]1CCCN1C(=O)[C@@H](CC(N)=O)NC(=O)[C@@H](CCCNC(=N)N)NC(=O)[C@@H](C)NC(=O)[C@@H](CCCNC(=N)N)NC(=O)[C@@H](CO)NC(=O)[C@H](N)CCCNC(=N)N)C(=O)NCCC(N)=O
PKB beta
  inhibition at 1 µM: 87%
PKB gamma
  inhibition at 1 µM: 97%
PI3K P110δ
  inhibition at 1 µM: 61%
PI3K beta
  inhibition at 1 µM: 24%
c-RAF (h)
  inhibition at 1 µM: 85%
PKC beta I
  inhibition at 1 µM: 79%
PKC beta II
  inhibition at 1 µM: 77%
PKC alpha
  inhibition at 1 µM: 53%
MEK1 (h)
  inhibition at 1 µM: 95%

## AAVALLPAVLLALLARSKAKNPLYR [IK2]
[1]; 30 μM IK2 peptide, FIG. 9
  effect in combination with cisplatin versus calculated additive effect, HT29 cells: synergistic effect
[2]; 5 μM or 10 μM IK2 peptide, FIGS. 7A, 7B
  observed inhibition in combination with oxaliplatin versus calculated additive effect, ADDP cells: synergistic outcome
[2]; 30 μM IK2 peptide, FIG. 8
  effect in combination with cisplatin versus calculated additive effect, ADDP cells: synergistic effect
[2]; compared to cisplatin or IK2 alone, FIG. 6
  inhibition of the growth of ADDP cancer cells in combination with cisplatin: high level inhibition of the growth
[2]; compared to oxaliplatin or IK2 alone
  inhibition of the growth of ADDP cancer cells in combination with oxaliplatin: high level inhibition of the growth

## dendrimer presenting 12 monomer units of the peptide RSKAKNPLYR [Dend 12-10(4)]
[1]; MTT, 48 hours
  IC50: 1000 nM
  dendrimer concentration required for total kill, HT29 cells: 10 µM
  inhibition of proliferation of HT29 cells: more effective than Dend 9-10(4)
